Results: patent US12544387B2, “Methods and compositions for testosterone production” (priority 2023, dated 2026)

Experiments:
[1] = test system: endogenous testosterone, LH, and FSH production; assay: Example 3: hormone levels after enclomiphene; type: in vivo, human; details: 6.25 mg enclomiphene; n=1
Procedure: This example investigated the effects of administering a SERM (enclomiphene) on endogenous testosterone, LH, and FSH production.
Hormone levels were measured after administration of 6.25 mg of enclomiphene (see Table 3, n=1).

[2] = Testosterone concentration at time points after 200 mg of testosterone (FIG. 1)
Procedure: FIG. 1 is a phase diagram of the testosterone concentration in a patient at various time points after being administered 200 mg of testosterone.
Hormone levels were measured after co-administration of 200 mg of testosterone and 6.25 mg of enclomiphene for 30 days. Testosterone concentration was measured at +4 hours and +12 hours after administration. […] Testosterone concentration was measured at +4 hours after administration to capture the peak testosterone concentration (cMax) and +12 hours after administration to capture the trough testosterone concentration (cMin) to determine if endogenous testosterone suppression is prevented with the enclomiphene.

CCN(CC)CCOc1ccc(/C(=C(/Cl)c2ccccc2)c2ccccc2)cc1 [enclomiphene]
Sex Hormone Binding Globulin [1]: 20 nmol/L
increase of calculated free testosterone from baseline (114 pg/mL) [1]: 73%

C[C@]12CC[C@H]3[C@@H](CCC4=CC(=O)CC[C@@]43C)[C@@H]1CC[C@@H]2O [testosterone, 17β-hydroxy-4-androsten-3-one]
time of testosterone peak [2]: 3 to 5 h
time until testosterone is out of the system [2]: ≤ 12 h
